Data as given in the CheMixHub viscosity set.

Assay: xn = mol fraction of the nth substance listed

CS(C)=O + OCCO
viscosity [mPa·s]
Conditions	308.15 K	313.15 K	318.15 K	323.15 K
100 kPa, x1 = 0.105	–	7.61	6.51	5.63
100 kPa, x1 = 0.1987	–	6.39	5.54	4.82
100 kPa, x1 = 0.2971	–	5.32	4.51	4.09
100 kPa, x1 = 0.3911	–	4.45	3.86	3.48
100 kPa, x1 = 0.5099	–	3.56	3.02	2.84
100 kPa, x1 = 0.5932	–	3.07	2.72	2.48
100 kPa, x1 = 0.702	–	2.61	2.45	2.13
100 kPa, x1 = 0.7931	–	2.32	2.24	1.91
100 kPa, x1 = 0.9003	–	2	1.92	1.67
101 kPa, x2 = 0.0621	–	1.8	1.63	1.5
101 kPa, x2 = 0.1227	–	2.24	2.02	1.84
101 kPa, x2 = 0.1819	–	2.8	2.51	2.27
101 kPa, x2 = 0.2394	–	3.49	3.06	2.73
101 kPa, x2 = 0.2958	–	4.19	3.56	3.14
101 kPa, x2 = 0.3504	–	4.83	4.12	–
101 kPa, x2 = 0.404	–	5.48	4.63	–
101 kPa, x2 = 0.4562	7.13	6.01	5.11	–
101 kPa, x2 = 0.5076	7.73	6.52	5.52	–
101 kPa, x2 = 0.5568	8.27	6.95	5.88	–
101 kPa, x2 = 0.6061	8.72	7.33	6.2	–
101 kPa, x2 = 0.6537	9.12	7.65	6.49	–
101 kPa, x2 = 0.7004	9.44	7.94	6.72	–
101 kPa, x2 = 0.7461	9.75	8.22	6.93	–
101 kPa, x2 = 0.7906	9.99	8.48	7.15	–
101 kPa, x2 = 0.8342	10.2	8.71	7.33	–
101 kPa, x2 = 0.8769	10.5	8.95	7.53	–
101 kPa, x2 = 0.9189	10.9	9.2	7.71	–
101 kPa, x2 = 0.9599	11.1	9.41	7.9	–
